Experimental data: patent US20020058701A1 (priority 2000, published 2002)

How the values were obtained:
[1] = tested on: C57BL/ks diabetic (db/db) mice; test: Glucose-lowering (plasma glucose) in diabetic db/db mice; type: in vivo; conditions: for Change in Glucose (mg/dL) 6 H: 6 h after initial dose; for Change in Glucose (mg/dL) 30 H: 30 h after initial dose; for Change in Glucose (mg/dL) 54 H: 54 h after initial dose
Experimental: (§1) Genetically altered obese diabetic mice (designated C57BL/ks diabetic or db/db) were purchased from the Jackson Laboratory (Bar Harbor, Me., USA), and served as experimental animals. Male animals between the ages of 8-9 weeks were employed in the studies described here. Animals were housed (4 mice/cage) under standard laboratory conditions at 22° C. and 50% relative humidity, and were maintained on a diet of Purina rodent chow and water ad libitum. Prior to treatment, blood was collected from the tail vein of each animal. Mice that had plasma glucose levels between 350 and 600 mg/dL were used. Each treatment group consisted of eight mice that were distributed so that the mean glucose levels were equivalent in each group at the start of the study. Db/db mice received, orally by gavage: the experimental compound administered at 62.5, 125, or 250 mg/kg/day (unless otherwise noted), or metformin administered at […] for 1-3 days. Test compounds were delivered in a liquid vehicle containing 0.25% (w/v) carboxymethyl-cellulose, 1% (v/v) Tween […] (polyoxyethylene sorbitan monosterate), and up to 10% (v/v) dimethyl sulfoxide (DMSO) in a volume of 10 ml/kg. Blood was sampled from the tail vein at three hours, six, eight, twenty-four, and thirty hours post-administration (the first administration) of the particular compound in non-fasted conditions. Experiments 3-5 also sampled blood at fifty-four hours post-administration (the first administration) of the particular compound in non-fasted conditions. Blood samples were analyzed for plasma glucose levels. Individual body weights and mean food consumption (each cage) were also measured daily.
The isolated test substances were prepared as described previously (vide supra). Metformin (1,1-dimethylbiguanide), carboxymethyl cellulose and Tween 60 were purchased from Sigma Chemical Co. (St. Louis, Mo., USA; catalog #'s D-5035, C-4888, and p-1629, respectively). Plasma glucose levels were determined colorimetrically using glucose oxidase (Sigma Chemical Co.; Sigma catalog #315). Significant differences between groups (comparing compound-treated to vehicle-treated) were evaluated using analysis of variance and Fisher's post-hoc test.
Vehicle, metformin (250 mg/kg) or enriched extract (1000 mg/kg) were given to db/db mice at 0(initial), 8, 24, 32, 48, 56, 72, 80, and 96 hours post initial dose.
Plasma glucose levels were measured at baseline, 3 (day 1), 51 hours (Day 3), and 99 hours (Day 5).

[2] = Body weights and food consumption in diabetic db/db mice; type: in vivo
Experimental: as §1

SMILES: CN(C)C(=N)NC(=N)N [Metformin, 1,1-dimethylbiguanide, reference compound]
- Change in Glucose (mg/dL) 6 H ([1]; 250 mg/kg q.d. oral at 0, 24, 48 h, vehicle 35.9, Tables 4 and 6): -180.4 mg/dL
- Change in Glucose (mg/dL) 30 H ([1]; 250 mg/kg q.d. oral at 0, 24, 48 h, vehicle 79.6, Tables 4 and 6): -112.4 mg/dL
- Change in Glucose (mg/dL) 54 H ([1]; 250 mg/kg q.d. oral at 0, 24, 48 h, vehicle 60.3, Tables 4 and 6): -41.3 mg/dL
- glucose levels rose ([1]; Table 8, metformin 250 mg/kg, fifty-four hours after the initial dose, value = size of rise): 6.8 mg/dL
- lowered plasma glucose levels by ([1]; Table 8, metformin 250 mg/kg, six hours after the initial dose, value = size of decline): approximately 113.6 mg/dL
- lowered plasma glucose levels by ([1]; Table 8, metformin 250 mg/kg, thirty hours after the initial dose, value = size of decline): ~25.1 mg/dL
- mean glucose levels declined from the baseline values ([1]; Tables 4 and 6, 250 mg/kg, fifty-four hours after initial dosing, value = size of decline): 41.3 mg/dL
- mean glucose levels declined (lowered) from the baseline value ([1]; Tables 4 and 6, 250 mg/kg, six hours after initial dosing, value = size of decline): approximately 180.4 mg/dL
- mean glucose levels declined (lowered) from the baseline values ([1]; Tables 4 and 6, 250 mg/kg, thirty hours after initial dosing, value = size of decline): ~112.4 mg/dL
- Change in Glucose (mg/dL) 6 H ([1]; metformin 250 mg/kg q.d. oral, vehicle 15.5, Table 8): -113.6 mg/dL
- Change in Glucose (mg/dL) 30 H ([1]; metformin 250 mg/kg q.d. oral, vehicle 56.6, Table 8): -25.1 mg/dL
- Change in Glucose (mg/dL) 54 H ([1]; metformin 250 mg/kg q.d. oral, vehicle 88.6, Table 8): 6.8 mg/dL
- Day 1 glucose ([1]; metformin 250 mg/kg, same schedule as extracts, 3 h post initial dose, vehicle −80.9): -180.5 mg/dL
- Day 3 glucose ([1]; metformin 250 mg/kg, same schedule as extracts, 51 h post initial dose, vehicle −77.1): -207.5 mg/dL
- Day 5 glucose ([1]; metformin 250 mg/kg, same schedule as extracts, 99 h post initial dose, vehicle +102.1): -86.4 mg/dL
- Food Intake (g/mouse) 0-48 h ([2]; 250 mg/kg, vehicle 6.0, Table 9): 5.4 g/mouse
- Food Intake (g/mouse) 0-48 h ([2]; 250 mg/kg, vehicle 6.3, Tables 5 and 7): 5.1 g/mouse
- Body weight (g/mouse) (mean) 0 h ([2]; 250 mg/kg, vehicle 39.2 ± 0.5, Tables 5 and 7): 37.3 ± 0.7 g/mouse
- Body weight (g/mouse) (mean) 0 h ([2]; 250 mg/kg, vehicle 39.8 ± 0.7, Table 9): 40.6 ± 0.4 g/mouse
- Body weight (g/mouse) (mean) 48 hr ([2]; 250 mg/kg, vehicle 39.5 ± 0.5, Tables 5 and 7): 37.2 ± 0.6 g/mouse
- Body weight (g/mouse) (mean) 48 hr ([2]; 250 mg/kg, vehicle 39.7 ± 0.6, Table 9): 40.5 ± 0.4 g/mouse

SMILES: COc1cc(/C=C/c2ccccc2)cc(O)c1CC=C(C)C [Compound D, 3-hydroxy-5-methoxy-4-(3-methyl-2-butenyl)stilbene]
- Food Intake (g/mouse) 0-48 h ([2]; 125 mg/kg, vehicle 6.1, Table 11): 5.7 g/mouse
- Body weight (g/mouse) (mean) 0 h ([2]; 125 mg/kg, vehicle 39.4 ± 0.4, Table 11): 39.3 ± 0.6 g/mouse
- Body weight (g/mouse) (mean) 48 hr ([2]; 125 mg/kg, vehicle 40.1 ± 0.4, Table 11): 39.7 ± 0.7 g/mouse
